The source of these data is US6291677A, “Compounds having activity as inhibitors of cytochrome P450RAI” (Allergan Sales, Inc., priority 2000, dated 2001).

The structures appear in SMILES notation.

One series deals with RARα. Kind of series: chimeric receptor transactivation assay, RARα. Type of series: cell-based. To be noted: unit assumed. An excerpt:
(§1) Assays described below measure the ability of a compound to bind to, and/or activate various retinoid receptor subtypes. When in these assays a compound binds to a given receptor subtype and activates the transcription of a reporter gene through that subtype, then the compound is considered an agonist of that receptor subtype. […] In the below described assays the ability of the compounds to bind to RARα, RARβ, RARγ,RXRα, RXRβ and RXRγ receptors, and the ability or inability of the compounds to activate transcription of a reporter gene through these receptor subtypes can be tested.
(§2) The results obtained in this assay are expressed in EC50 numbers, as they are also in the chimeric receptor transactivation assay. The results of ligand binding assay are expressed in Kd numbers.

Another series deals with RARβ. Description: chimeric receptor transactivation assay, RARβ. Type of series: cell-based. To be noted: unit assumed.
Excerpt: as §1, §2

Another series deals with RARγ. Kind of series: chimeric receptor transactivation assay, RARγ. Type of series: cell-based. To be noted: unit assumed.
Excerpt: as §1, §2

Another series relates to skin of hairless mice. Kind of series: topical skin irritation test in hairless mice. The class given is in vivo, female hairless mice (Crl:SKH1-hrBR). To be noted: once daily days 1 through 5, mean±SD. The source says:
Mice were housed individually throughout the dosing period.
Doses are disclosed as nmol/25 g.
The grading scale used is as follows:
Values can range from 0-9.
Values can range from 0-8.

In turn, `COC1(c2ccc(C#Cc3ccc(C(=O)O)cc3)cc2)CC1` [Compound 69, 4-[4-(1-Methoxycyclopropyl)-phenylethynyl]-benzoic acid] returned a (EFFICACY) RAR α in the series on RARα of 10%. The compound also displayed a (EFFICACY) RAR β in the series with RARβ of 50%. The (EFFICACY) RAR γ in the series with RARγ stood at 31%.
Regarding `CC1(C)CCC(=O)c2ccc(C#Cc3ccc(CC(=O)O)cc3)cc21` [Compound 5, 4-[(8,8-Dimethyl-5-oxo-5,6,7,8-tetrahydro-naphthalene-2-yl-ethynyl)-phenyl]-acetic acid], the (EFFICACY) RAR β in the series with RARβ was 36%. Besides, the results for the “Cutaneous Toxicity Score (Blackjack Score)” value (shortened to “Cutaneous Toxicity Score”) in the series with skin of hairless mice (100 nmole) and with skin of hairless mice (1000 nmole) were 0 and 6 ± 3, respectively.
In the series with RARα, `CCc1cc(C#Cc2ccc(C(=O)O)cc2)ccc1C1(OCc2ccccc2)CC1` [Compound 93, 4-[4-(1-Benzyloxycyclopropy)-3-ethyl-phenylethynyl]-benzoic acid] registered a (EFFICACY) RAR α of 114%. The compound also displayed a (EFFICACY) RAR β in the series on RARβ of 39%. The compound further had a (EFFICACY) RAR γ in the series on RARγ of 55%.
On to `CC1(C)CCC(n2ccnc2)c2ccc(C#Cc3ccc(CC(=O)O)cc3)cc21` (stereo not shown) [Compound 137, [4-(5-Imidazol-1-yl-8,8-dimethyl-5,6,7,8-tetrahydro-naphthalen-2-yl-ethynyl)-phenyl]-acetic acid], for which the “Cutaneous Toxicity Score” value in the series with skin of hairless mice (100 nmole) was determined as 1 ± 1; in the series with skin of hairless mice (300 nmole), 1 ± 1; in the series with skin of hairless mice (1000 nmole), 5 ± 2.
For the compound `CC1(C)CC(C)(C)c2cc(C#Cc3ccc(CC(=O)O)cc3)cc(C3CC3)c2O1` [Compound 36, [4-(8-Cyclopropyl-2,2,4,4-tetramethyl-chroman-6-yl-ethynyl)phenyl]acetic acid], the “Cutaneous Toxicity Score” value in the series with skin of hairless mice (100 nmole) is given as 1 ± 1; in the series on skin of hairless mice (1000 nmole) it was 11 ± 0.
On to `CC1(C)CC2(CC2)Oc2c(C3CC3)cc(C(=O)Oc3ccc(CC(=O)O)cc3)cc21` [Compound 58], for which the “Cutaneous Toxicity Score” value in the series on skin of hairless mice (100 nmole), in the series with skin of hairless mice (300 nmole) and in the series with skin of hairless mice (1000 nmole) was 0 ± 0 throughout.
`Cc1cc(C#Cc2ccc(C(=O)O)cc2)ccc1C1(OC(C)C)CC1` [Compound 85, 4-[4-(1-Isopropoxycyclopropyl)-3-methyl-phenylethynyl]-benzoic acid] came in with a (EFFICACY) RAR α in the series with RARα of 60%. Further, the (EFFICACY) RAR β in the series on RARβ is 77%. For the same compound, the (EFFICACY) RAR γ in the series on RARγ turned out to be 65%.
With `CC(C)OC1(c2ccc(C#Cc3ccc(C(=O)O)cc3)cc2)CC1` [Compound 73, 4-[4-(1-Isopropoxycyclopropyl)-phenylethynyl]-benzoic acid], the (EFFICACY) RAR β with RARβ was determined as 39%. In addition, the (EFFICACY) RAR γ in the series on RARγ amounted to 24%.
Turning to `CN(C1CC1)C1CCC(C)(C)c2cc(C#Cc3ccc(C(=O)O)cc3)ccc21` (stereo not shown) [Compound 3, 4-[(5-Cyclopropyl-methyl-amino)-8,8-dimethyl-5,6,7,8-tetrahydro-naphthalene-2yl-ethynyl]-benzoic acid], the (EFFICACY) RAR α in the series on RARα was 28%. This compound also gave a (EFFICACY) RAR β with RARβ of 54%. In the series with RARγ, this compound had a (EFFICACY) RAR γ of 52%.
Consider `CN(C1CC1)C1CCC(C)(C)c2cc(C#Cc3ccc(C(=O)O)c(F)c3)ccc21` (stereo not shown) [Compound 13, 4-[5-(Cyclopropyl-methyl-amino)-8,8-dimethyl-5,6,7,8-tetrahydro-naphthalene-2-yl-ethynyl]-2-fluoro benzoic acid], for which the (EFFICACY) RAR β in the series with RARβ worked out at 6.6%. In the series on RARγ, the (EFFICACY) RAR γ came to 9%.
Take `CC1(C)CC2(CC2)Oc2ccc(C#Cc3ccc(C(=O)O)cc3)cc21` [Compound 40, Benzoic acid, 4-[(3,4-dihydro-4,4-dimethylspiro[2H-1-benzopyran-2,1'-cyclopropane]-6-yl)ethynyl]-]: the (EFFICACY) RAR α in the series with RARα was 207%. The (EFFICACY) RAR β in the series on RARβ is 126%. This compound yielded a (EFFICACY) RAR γ with RARγ of 140%.
`O=C(O)c1ccc(C#Cc2ccc(C3(NCc4ccccc4)CC3)cc2)cc1` [Compound 112]: the (EFFICACY) RAR β with RARβ stood at 37%.
On to `CC1(C)CCC(=O)c2ccc(C#Cc3ccc(CC(=O)O)c(F)c3)cc21` [Compound 15, [2-Fluoro-4-(8,8-dimethyl-5-oxo-5,6,7,8-tetrahydro-naphthalene-2-yl-ethynyl)phenyl]-acetic acid], for which the “Cutaneous Toxicity Score” value in the series on skin of hairless mice (100 nmole) is listed as 1 ± 1; in the series with skin of hairless mice (1000 nmole) it was 5 ± 2.
Turning to `Cc1cc(C#Cc2ccc(C(=O)O)cc2)ccc1C1(OCc2ccccc2)CC1` [Compound 81, 4-[4-(1-Benzyloxycyclopropyl)-3-methyl-phenylethynyl]-benzoic acid], in the series with RARβ, the (EFFICACY) RAR β was 80%. Further, the (EFFICACY) RAR γ with RARγ is 67%.
On to `CC1(C)CN(C2CC2)Cc2ccc(C#Cc3ccc(CC(=O)O)c(F)c3)cc21` [Compound 22, [4-(2-Cyclopropyl-4,4-dimethyl-1,2,34-tetrahydro-isoquinolin-6-yl-ethynyl)-2-fluoro-phenyl]-acetic acid], for which the “Cutaneous Toxicity Score” value came to 0 ± 0 in the series on skin of hairless mice (100 nmole), 0 ± 0 with skin of hairless mice (300 nmole) and 1 ± 1 with skin of hairless mice (1000 nmole).
As to `CC1(C)CC2(CC2)Oc2ccc(C#Cc3ccc(C(=O)O)c(F)c3)cc21` [Compound 44, 2-Fluoro-benzoic acid 4-[(3,4-dihydro-4,4-dimethylspiro[2H-1-benzopyran-2,1'-cyclopropane]-6-yl)ethynyl]-], the (EFFICACY) RAR α in the series with RARα was found to be 138%. In the series on RARβ, this compound came in with a (EFFICACY) RAR β of 100%. Further, the (EFFICACY) RAR γ in the series with RARγ came out at 116%.
For the compound `CN(C1CC1)C1CCC(C)(C)c2cc(C#Cc3ccc(CC(=O)O)c(F)c3)ccc21` (stereo not shown) [Compound 18, [4-(5-(Cyclopropyl-methyl-amino)-8,8-dimethyl-5,6,7,8-tetrahydro-naphthalene-2-yl-ethynyl)-2-fluoro-phenyl]-acetic acid], the “Cutaneous Toxicity Score” value with skin of hairless mice (100 nmole) was 0 ± 0; in the series on skin of hairless mice (300 nmole) it was 1 ± 1; in the series on skin of hairless mice (1000 nmole), 10 ± 2.
With `CCCN(CCC)C1(c2ccc(C#Cc3ccc(C(=O)O)cc3)cc2)CC1` [Compound 110, 4-[4-(1-Dipropylamino-cyclopropyl)-phenylethynyl]-benzoic acid], in the series on RARβ, the (EFFICACY) RAR β is 44%. In the series with RARγ, this compound had a (EFFICACY) RAR γ of 42%.
In the series on RARα, `CC1(C)CCC(=O)c2ccc(C#Cc3ccc(C(=O)O)c(F)c3)cc21` [Compound 10, 2-Fluoro-4-(8,8-dimethyl-5-oxo-5,6,7,8-tetrahydro-naphthalen-2yl-ethynyl)-benzoic acid] displayed a (EFFICACY) RAR α of 146%. In the series with RARβ, this compound returned a (EFFICACY) RAR β of 86%. The compound also returned a (EFFICACY) RAR γ in the series with RARγ of 94%.
As for `CC1(C)CC2(CC2)Oc2c(C3CC3)cc(C#Cc3ccc(CC(=O)O)cc3)cc21` [Compound 48, Benzeneacetic acid, 4-[(8-cyclopropyl-3,4-dihydro-4,4-dimethylspiro[2H-1-benzopyran-2,1'-cyclopropane]-6-yl)ethynyl]-], the entries for the “Cutaneous Toxicity Score” value in the series on skin of hairless mice (100 nmole), with skin of hairless mice (300 nmole) and in the series on skin of hairless mice (1000 nmole) were 1 ± 1, 3 ± 1 and 7 ± 2, respectively.
On to `CC1(C)CC2(CC2)Oc2c(C3CC3)cc(C#Cc3ccc(CC(=O)O)c(F)c3)cc21` [Compound 50, 4-[(8-Cyclopropyl-3,4-dihydro-4,4-dimethylspiro[2H-1-benzopyran-2,1'-cyclopropane]-6-yl)ethynyl]-2-fluoro-benzeneacetic acid], for which the “Cutaneous Toxicity Score” value in the series on skin of hairless mice (100 nmole) amounted to 1 ± 0; in the series with skin of hairless mice (300 nmole) it was 3 ± 2; in the series with skin of hairless mice (1000 nmole) it was 8 ± 2.
